# Experimental data from patent publication US8497276B2, “Substituted indolo-piperidine compounds” (ArQule, Inc., priority 2009, dated 2013).
# Assays:
# [1] = target: T1, Tec kinase (Homo sapiens, UniProt P42680); test: Tec Kinase Activity Assay; type: biochemical; conditions: 75 μM ATP, Pyk-2 substrate; compound concentration not given
# T1 sequence (P42680 1-631): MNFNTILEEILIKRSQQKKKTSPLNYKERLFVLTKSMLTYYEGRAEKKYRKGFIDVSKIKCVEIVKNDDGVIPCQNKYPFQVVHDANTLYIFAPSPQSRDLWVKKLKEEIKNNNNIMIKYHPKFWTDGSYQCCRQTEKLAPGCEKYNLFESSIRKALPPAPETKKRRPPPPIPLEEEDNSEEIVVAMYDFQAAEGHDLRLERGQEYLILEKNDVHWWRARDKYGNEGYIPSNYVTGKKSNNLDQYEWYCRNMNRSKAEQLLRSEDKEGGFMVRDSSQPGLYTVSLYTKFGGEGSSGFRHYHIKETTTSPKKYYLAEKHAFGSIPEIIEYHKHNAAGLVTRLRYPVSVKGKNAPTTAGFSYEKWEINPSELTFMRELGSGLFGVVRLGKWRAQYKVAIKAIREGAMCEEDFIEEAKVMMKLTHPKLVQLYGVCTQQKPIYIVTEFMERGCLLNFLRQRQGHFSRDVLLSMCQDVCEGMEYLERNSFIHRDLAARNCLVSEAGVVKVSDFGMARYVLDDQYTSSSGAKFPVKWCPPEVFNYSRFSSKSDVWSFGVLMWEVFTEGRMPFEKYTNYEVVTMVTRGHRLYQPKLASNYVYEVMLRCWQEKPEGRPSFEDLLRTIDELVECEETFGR
# How it was run: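 TEC enzyme was preincubated 30 min with compound in buffer containing 75 μM ATP, 10 mM MgCl2, 2 mM DTT and 50 mM Tris-HCl. Pyk-2 substrate was then added for 2 h at room temperature. Phosphorylated product was captured on streptavidin plates and detected by anti-phosphotyrosine ELISA with an alkaline phosphatase/Attophos fluorescent read-out.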
# [2] = tested on: DLD-1; test: MTS Assay (cell growth inhibition), DLD-1; type: cell-based; conditions: DLD-1 cells, 72 hours with test compound; concentration not given
# How it was run: (§1)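 First, seed 3000 cells per well in low-serum (1% FBS) DMEM and culture 18 h. Next, add compounds prepared at 300× in DMSO and diluted 1:40 in DMEM; incubate 72 h. Finally, add MTS/PMS for 4 h and measure absorbance at 492 nm.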
# [3] = tested on: Kato III; test: MTS Assay (cell growth inhibition), Kato III; type: cell-based; conditions: Kato III cells, 72 hours with test compound; concentration not given
# How it was run: as §1
# [4] = tested on: MDA-MB 231; test: MTS Assay (cell growth inhibition), MDA-MB 231; type: cell-based; conditions: MDA-MB 231 cells, 72 hours with test compound; concentration not given
# How it was run: as §1
# [5] = tested on: NCI-H1299; test: MTS Assay (cell growth inhibition), NCI-H1299; type: cell-based; conditions: NCI-H1299 cells, 72 hours with test compound; concentration not given
# How it was run: as §1
# [6] = tested on: PACA-2; test: MTS Assay (cell growth inhibition), PACA-2; type: cell-based; conditions: PACA-2 cells, 72 hours with test compound; concentration not given
# How it was run: as §1
# [7] = tested on: PC-3; test: MTS Assay (cell growth inhibition), PC-3; type: cell-based; conditions: PC-3 cells, 72 hours with test compound; concentration not given
# How it was run: as §1
compound,measurement,setting,value
"COc1ccc(C2c3[nH]c4ccccc4c3CCN2c2ncnc3[nH]cnc23)cc1OC (stereo not drawn) [Compound 23, 1-(3,4-dimethoxyphenyl)-2-(9H-purin-6-yl)-2,3,4,9-tetrahydro-1H-beta-carboline]",Biochemical IC50 (% inhibition) Tec,[1],C (C = <50% inhibition)
same,MTS cell kill data (% inhibition) DLD-1,[2],B (B = 50-79% inhibition)
same,MTS cell kill data (% inhibition) Kato III,[3],B (B = 50-79% inhibition)
same,MTS cell kill data (% inhibition) MDA-MB 231,[4],C (C = <50% inhibition)
same,MTS cell kill data (% inhibition) NCI-H1299,[5],B (B = 50-79% inhibition)
same,MTS cell kill data (% inhibition) PACA-2,[6],B (B = 50-79% inhibition)
same,MTS cell kill data (% inhibition) PC-3,[7],C (C = <50% inhibition)
